In ChEMBL document CHEMBL3865848, “Macrocyclic Inhibitors of ERK2 Kinase” (ACS Med Chem Lett, 2016):

Biological target: Mitogen-activated protein kinase 1 (Homo sapiens, UniProt P28482)
Sequence (P28482 whole entry): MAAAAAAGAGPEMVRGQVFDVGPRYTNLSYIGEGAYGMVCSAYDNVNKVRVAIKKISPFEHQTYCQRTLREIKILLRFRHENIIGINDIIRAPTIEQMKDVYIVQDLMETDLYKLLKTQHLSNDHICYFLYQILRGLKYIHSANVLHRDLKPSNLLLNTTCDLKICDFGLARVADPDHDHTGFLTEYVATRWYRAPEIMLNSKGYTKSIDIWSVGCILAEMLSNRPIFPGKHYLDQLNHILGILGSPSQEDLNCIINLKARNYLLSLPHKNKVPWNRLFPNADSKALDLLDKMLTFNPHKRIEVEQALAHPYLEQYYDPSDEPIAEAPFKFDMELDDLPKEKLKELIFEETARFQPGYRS
Description: Inhibition of human activated ERK2 assessed as reduction in phosphorylation activity preincubated for 15 mins followed by addition of IMAP peptide as substrate and ATP measured after 60 mins by fluorescence polarization method

Compound | IC50
CCn1ncc2cc3nc(c21)CCCO[C@H](O)[C@H](c1ccccc1)NC(=O)N3 | 24.3 nM
CCn1ncc2cc3nc(c21)CCCO[C@@H](O)[C@H](c1ccccc1)NC(=O)N3 | 118 nM
